Assay results reported in US20240011034A1, “INHIBITION OF miR-29b-3p TO ENHANCE NEURONAL SURVIVAL IN HUNTINGTON'S DISEASE” (Washington University, priority 2022, published 2024).

Assays:
[1] = tested on: p62/SQSTM1; assay: p62/SQSTM1 immunostaining and immunoblot; format: cell-based, human; conditions: 0.5 μM vs DMSO, PID26
Procedure: (§1) Reprogrammed cells were fixed with 4% paraformaldehyde (Electron Microscopy Sciences, #15710) for 20 min at room temperature (RT), and permeabilized with 0.2% Triton X-100 for 10 min at RT. Cells were blocked with 5% BSA and 1% goat serum in PBS and incubated with primary antibodies at 4° C. overnight, then incubated with secondary antibodies for 1 hr at RT. Cells were incubated with DAPI (Sigma, D-9542) for 5 minutes followed by washing with PBS. Images were captured using a Leica SP5X white light laser confocal system with Leica Application Suite (LAS) Advanced Fluorescence 2.7.3.9723.
Cells were lysed in 2% SDS buffer. The concentrations of whole-cell lysates were measured using the Pierce BCA protein assay kit (Thermo Scientific, #23227). […]
First, tandem monomeric mCherry-GFP-tagged LC3, previously shown to distinguish prefusion autophagic compartments from mature acidic autolysosomes based on the differential pH sensitivity of GFP versus mCherry, was used. […] CYTO-ID assay, a fluorescence-based live-cell assay for accumulated autophagic vacuoles, and immunostaining of p62/SQSTM1, a marker widely used to monitor autophagic activity due to its binding to LC3 and degradation during autophagy, were further performed. […]

[2] = tested on: α1-antitrypsin Z variant (ATZ); assay: Immunoblot of steady-state ATZ in HTO/Z cell line model of α1-antitrypsin deficiency; format: cell-based; conditions: 24 hr, 0.5 and 2.5 μM vs DMSO (0.5 μM: p=0.003)
Procedure: FIG. 7A-7H show autophagy activator rescues HD-MSNs from degeneration. […] The normalized intensity (bottom) was calculated from immunoblot images for 0.5 μM versus DMSO control (Individual data plotted, n=4; *p=0.003 by t-test; Mean±s.e.m.). FIG. 7C show representative images of p62 and TUBB3-positive cells (top) and quantification of p62 intensity per cell (bottom) at PID26 from multiple healthy control old and HD-MSNs treated with DMSO or 0.5 μM G2-115. Each dot represents one individual's reprogrammed MSN. Scale bars is 20 μm FIG. 7D show representative images of CYTO-ID staining (top) and quantification of CYTO-ID green signals (bottom) at PID26 from multiple healthy control old and HD-MSNs treated with DMSO or 0.5 μM G2-115. Each dot represents one individual's reprogrammed MSN. Scale bar is 20 μm FIG. 7E show representative images (top) and quantification (bottom) of SYTOX-positive cells as a fraction of Hoechst-positive cells in HD-MSN treated with DMSO or different concentration of G2-115 (0.125, 0.25, or 0.5 μM) (n=4). Scale bar is 20 μm. FIG. 7F show quantification of SYTOX-positive cells from multiple healthy control old and HD-MSNs treated with DMSO or 0.5 μM G2-115. […] FIG. 7G show Representative images (left) and quantification (right) of caspase3/7 activation (green) and Annexin V signal (green) from three independent HD-MSN lines treated with DMSO or 0.5 μM G2-115. […]

[3] = tested on: reprogrammed MSNs; assay: CYTO-ID assay for accumulated autophagic vacuoles; format: cell-based, human; conditions: 0.5 μM vs DMSO, PID26
From the text: First, tandem monomeric mCherry-GFP-tagged LC3, previously shown to distinguish prefusion autophagic compartments from mature acidic autolysosomes based on the differential pH sensitivity of GFP versus mCherry, was used. […] CYTO-ID assay, a fluorescence-based live-cell assay for accumulated autophagic vacuoles, and immunostaining of p62/SQSTM1, a marker widely used to monitor autophagic activity due to its binding to LC3 and degradation during autophagy, were further performed. […] The difference in p62 between pre-HD-MSNs and HD-MSNs was also validated by immunoblot assay (FIG. 3I). Because caspase activation has been detected in HD, and cell death-related pathways (apoptosis and caspase) were enriched in the brown module, the levels of caspase activation between pre-HD-MSN and HD-MSNs were compared.

[4] = tested on: HTT inclusion bodies; assay: HTT inclusion bodies / mHTT aggregation by immunostaining; format: cell-based, human; conditions: HD-MSNs, 0.5 μM vs DMSO, PID30
Procedure: as §1

[5] = tested on: reprogrammed MSNs; assay: tandem mCherry-GFP-LC3 reporter puncta quantification; format: cell-based, human; conditions: HD-MSNs, 0.5 μM vs DMSO
Procedure: FUW mCherry-GFP-LC3 used was Addgene plasm id # 110060; http://n2t.net/addgene:110060; RRID:Addgene_110060. The concentrated lentivirus of mCherry-GFP-LC3 was added to reprogrammed MSNs at PID20. For imaging of cells expressing mCherry-GFP-LC3, cells were washed once with PBS, fixed and stained by TUBB3 antibody, after verification of expression of GFP and mCherry by microscopy at PID26. Images were captured using a Leica SP5X white light laser confocal system with Leica Application Suite (LAS) Advanced Fluorescence 2.7.3.9723. For quantification of autophagosome (i.e., mCherry+, GFP+ puncta) and autolysosome (i.e., mCherry+, GFP− puncta) compartments in MSNs from multiple HD patients and control individuals, measurements were performed in cells having at least 3 puncta per cell.

[6] = tested on: reprogrammed MSNs; assay: SYTOX assay (neuronal cell death); format: cell-based, human; conditions: for SYTOX-positive cells (beneficial effect): 0.5 μM vs DMSO
Procedure: 0.1 μM SYTOX gene nucleic acid stain (Invitrogen, S7020) and 1 μl/mL of Hoechst 33342 (Thermo Scientific, 66249) were added into cell medium. Samples were incubated for at least 30 mins at 37° C. prior to live-cell imaging. Images were taken using Leica DMI 4000B inverted microscope with Leica Application Suite (LAS) Advanced Fluorescence.

[7] = tested on: reprogrammed MSNs; assay: Apoptosis assay in live cells (Caspase-3/7, Annexin V); format: cell-based, human; conditions: HD-MSNs, vs DMSO
Procedure: Reprogrammed cells grown in 96-well plates were treated with 1× Essen Bioscience IncuCyte® Caspase-3/7 Green Reagent (final concentration 5 μM) and 1× Essen Bioscience IncuCyte® Annexin V Green or Red Reagent on day 22 or 26. Image scheduling, collection, and analysis were conducted with the IncuCyte® S3 LiveCell Analysis System platform and IncuCyte S3 v2017A software. Treated plates were imaged every two hours for 7 days. At each timepoint, over 2 images were taken per well in brightfield, FITC, and TRITC channels. Images were analyzed for the number of green or red objects per well. For the apoptotic index, the number of green or red objects (i.n., fluorescence cells) divided by phase area (μm2) per well was quantified by the IncuCyte® S3 Live-Cell Analysis System.

Structure (SMILES): O=c1ccc2c(Cl)cc(Cl)cc2[nH]1 [G2-115, 5,7-dichloro-1H-quinolin-2-one]
- p62/SQSTM1 signal ([1]; HD-MSNs): decreased
- p62/SQSTM1 signal ([1]; old Ctrl-MSNs): decreased
- steady-state levels of ATZ [2]: decreased
- number of autophagic vacuoles (CYTO-ID signals) ([3]; HD-MSNs): increased
- number of autophagic vacuoles (CYTO-ID signals) ([3]; old Ctrl-MSNs): increased
- number of HTT inclusion bodies [4]: reduced
- average number of autolysosomes [5]: increased
- average number of autophagosomes [5]: increased
- HD-MSN survival (reduction of SYTOX signal) ([6]; HD-MSN, 0.125, 0.25 or 0.5 μM vs DMSO, treated from PID14 every four days for 16 days): promoted HD-MSN survival in a dose-dependent manner
- SYTOX-positive cells (beneficial effect) ([6]; HD-MSNs from six independent patients): consistent in HD-MSNs from six independent patients
- SYTOX-positive cells (beneficial effect) ([6]; age-matched (old) Ctrl-MSNs versus HD-MSNs): specific to HD-MSNs
- Annexin V signal [7]: reduced
- Caspase 3/7 signal [7]: reduced
